The target in one experiment is T1, fMet-Leu-Phe receptor (Homo sapiens, UniProt P21462).
T1 sequence (P21462 whole entry): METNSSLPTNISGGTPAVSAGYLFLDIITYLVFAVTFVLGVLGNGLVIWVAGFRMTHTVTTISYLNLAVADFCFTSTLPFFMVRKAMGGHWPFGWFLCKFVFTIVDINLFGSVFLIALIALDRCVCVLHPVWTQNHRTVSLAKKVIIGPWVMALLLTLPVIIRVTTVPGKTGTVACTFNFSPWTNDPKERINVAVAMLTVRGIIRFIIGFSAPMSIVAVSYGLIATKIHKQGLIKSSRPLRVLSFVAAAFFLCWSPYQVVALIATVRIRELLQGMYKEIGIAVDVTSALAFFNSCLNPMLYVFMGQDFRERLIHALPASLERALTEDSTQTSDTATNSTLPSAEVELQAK
Briefly: FPR ligands, dose response (AID 519). In kind it is functional.

Experiment [1] deals with Eukaryotic translation initiation factor 4E (Mus musculus, UniProt P63073). The experiment is described as follows: eIF4E–eIF4G protein interaction inhibitors, dose response, biochemical, TR-FRET (AID 855).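 Also: potency for disrupting eIF4E binding to eIF4GI seen as loss of FRET.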 In kind it is functional.
For experiment [2], the target named is T2, Glutathione-S-transferase (Schistosoma japonicum, UniProt Q26513).
T2 sequence (Q26513 whole entry): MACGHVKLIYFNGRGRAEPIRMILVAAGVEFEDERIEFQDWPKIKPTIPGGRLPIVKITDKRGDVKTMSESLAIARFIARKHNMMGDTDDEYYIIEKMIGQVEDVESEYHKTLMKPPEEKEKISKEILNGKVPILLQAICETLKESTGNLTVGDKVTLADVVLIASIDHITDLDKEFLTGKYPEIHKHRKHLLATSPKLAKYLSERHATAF
Briefly: biotin-GST/anti-GST TR-FRET signal inhibitors, dose response, artefact control for Vif-APOBEC3G degradation inhibitor project, biochemical (AID 1117362). In kind it is functional.

Experiment [3] concerns the target Induced myeloid leukemia cell differentiation protein Mcl-1 (Homo sapiens, UniProt Q07820). In kind it is functional.
Experiment [4] is described as follows: HEK293 cell cytotoxicity, dose response, cytotoxicity control, plate reader, cherry-picked samples (AID 743446). It is filed as functional, cell-based.
A short description of experiment [5]: LGR2 antagonists, dose response, cell-based, HEK293, CRE-luciferase reporter, cherry pick, set 2 (AID 743343).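 Also: transfected cells were stimulated with diluted bursicon conditioned medium after compound addition.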 It is filed as functional. (Reporter assays use an easily measured gene product as a stand-in for the process of interest.)
A short description of experiment [6]: HepG2 cell cytotoxicity, dose response, cytotoxicity control, plate reader, cherry-pick, antagonist series (AID 743416). In kind it is functional, cell-based.
Experiment [7] concerns the target T3, Microphthalmia-associated transcription factor (Homo sapiens, UniProt O75030).
T3 sequence (O75030 whole entry): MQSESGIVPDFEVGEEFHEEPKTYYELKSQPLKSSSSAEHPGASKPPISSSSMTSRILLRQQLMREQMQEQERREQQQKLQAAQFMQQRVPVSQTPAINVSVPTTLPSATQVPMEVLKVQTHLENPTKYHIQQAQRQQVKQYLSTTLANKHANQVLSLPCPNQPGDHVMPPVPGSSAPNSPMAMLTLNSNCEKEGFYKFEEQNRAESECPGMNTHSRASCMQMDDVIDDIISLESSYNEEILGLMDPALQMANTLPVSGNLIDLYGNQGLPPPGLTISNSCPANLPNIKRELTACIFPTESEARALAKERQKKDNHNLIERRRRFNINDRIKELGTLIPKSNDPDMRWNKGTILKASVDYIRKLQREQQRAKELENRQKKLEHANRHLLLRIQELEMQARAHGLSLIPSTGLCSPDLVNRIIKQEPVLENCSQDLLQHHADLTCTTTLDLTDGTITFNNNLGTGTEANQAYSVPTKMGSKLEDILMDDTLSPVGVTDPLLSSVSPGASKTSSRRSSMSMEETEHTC
Briefly: TRPM1 promoter luciferase signal decrease, dose response, MITF inhibitor project, cell-based, SK-MEL-5, cherry-picked, set 3 (AID 493073).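 Also: SK-MEL-5 melanoma cells with luciferase driven by the MITF target TRPM1 promoter.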 In kind it is functional.

A short description of experiment [8]: A549 cell cytotoxicity, dose response, cytotoxicity control, plate reader, cherry-pick, antagonist series (AID 743412). In kind it is functional, cell-based.
The nature of experiment [9]: MC4R antagonists, dose response, counter-screen for LGR2 antagonist project, cell-based, plate reader, cherry pick (AID 743444).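 Also: transfected HEK 293 cells stimulated with alpha-MSH peptide; potency of inhibitors of the alpha-MSH evoked signal.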 In kind it is functional.
A short description of experiment [10]: inhibitors of PGC1a acetylation in cells, dose response, cell-based, cherry-picked samples (AID 720514).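 Also: potency may reflect raised or lowered acetylation signal.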 It is filed as functional.
The next experiment addresses Nonstructural protein 1 (Influenza A virus, UniProt Q194T2). In kind it is functional, Influenza A virus (A/California/07/2009(H1N1)).
For the next experiment, the target named is T4, Protein skinhead-1 (Caenorhabditis elegans, UniProt P34707).
T4 sequence (P34707 whole entry): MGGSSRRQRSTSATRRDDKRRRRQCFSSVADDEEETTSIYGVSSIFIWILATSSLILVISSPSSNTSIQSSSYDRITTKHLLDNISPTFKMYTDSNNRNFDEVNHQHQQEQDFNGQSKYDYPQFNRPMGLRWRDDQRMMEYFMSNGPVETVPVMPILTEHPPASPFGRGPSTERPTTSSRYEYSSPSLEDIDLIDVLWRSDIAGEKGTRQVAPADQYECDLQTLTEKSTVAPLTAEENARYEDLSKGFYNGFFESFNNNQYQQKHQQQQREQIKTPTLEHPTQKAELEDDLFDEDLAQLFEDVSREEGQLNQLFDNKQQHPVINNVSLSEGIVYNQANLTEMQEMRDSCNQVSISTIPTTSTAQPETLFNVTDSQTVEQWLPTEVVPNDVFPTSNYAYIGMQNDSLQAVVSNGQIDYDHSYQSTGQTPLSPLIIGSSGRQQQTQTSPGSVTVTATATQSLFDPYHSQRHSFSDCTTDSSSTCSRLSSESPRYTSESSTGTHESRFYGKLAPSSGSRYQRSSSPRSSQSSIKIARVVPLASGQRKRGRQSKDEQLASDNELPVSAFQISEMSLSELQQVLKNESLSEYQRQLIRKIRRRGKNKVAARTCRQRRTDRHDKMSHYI
It is filed as functional.

The next experiment concerns Streptococcus. Briefly: Group A Streptococcus viability loss, dose response, counter-screen for streptokinase expression inhibitor project, luminescence, BacTiterGlo (AID 1915).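 Also: potency for reduction of bacterial viability or growth.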 It is filed as functional, organism-based. A general note: The purpose of a counterscreen is to sort out artefacts and off-target activity.
Experiment [11] has as its target T5, RNA-binding protein pos-1 (Caenorhabditis elegans, UniProt G5EF15).
T5 sequence (G5EF15 whole entry): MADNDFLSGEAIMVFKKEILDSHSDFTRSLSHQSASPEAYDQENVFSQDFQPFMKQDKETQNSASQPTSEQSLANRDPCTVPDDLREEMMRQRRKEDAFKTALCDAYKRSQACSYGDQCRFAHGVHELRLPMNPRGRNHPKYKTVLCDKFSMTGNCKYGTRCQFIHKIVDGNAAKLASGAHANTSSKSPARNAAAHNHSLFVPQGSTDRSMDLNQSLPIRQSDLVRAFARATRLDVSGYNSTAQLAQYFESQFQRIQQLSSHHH
Briefly: inhibitors of POS-1/mex-3 RNA binding, dose response, biochemical, fluorescence polarization (AID 1964).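 Also: purified POS-1 fused to maltose binding protein made in E. coli; potency of compounds blocking POS-1 binding to fluorescent RNA.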 In general terms: Fluorescence polarisation rises when a labelled molecule tumbles more slowly, as on binding a larger partner.

Experiment [12] has as its target T6, Zinc finger protein mex-5 (Caenorhabditis elegans, UniProt Q9XUB2).
T6 sequence (Q9XUB2 whole entry): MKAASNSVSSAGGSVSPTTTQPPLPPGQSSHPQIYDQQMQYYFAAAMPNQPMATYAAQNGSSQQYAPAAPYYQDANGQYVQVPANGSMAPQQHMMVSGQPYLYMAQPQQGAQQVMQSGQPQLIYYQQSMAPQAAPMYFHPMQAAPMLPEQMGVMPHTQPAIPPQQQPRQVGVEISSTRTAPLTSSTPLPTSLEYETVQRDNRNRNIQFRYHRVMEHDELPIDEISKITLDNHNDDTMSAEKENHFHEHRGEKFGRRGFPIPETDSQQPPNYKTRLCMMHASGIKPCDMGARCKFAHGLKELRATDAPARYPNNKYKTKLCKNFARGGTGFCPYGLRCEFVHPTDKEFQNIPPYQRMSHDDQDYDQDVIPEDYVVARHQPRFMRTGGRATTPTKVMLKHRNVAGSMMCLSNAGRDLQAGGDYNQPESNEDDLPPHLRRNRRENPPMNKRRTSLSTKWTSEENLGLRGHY
The experiment is described as follows: MEX-5/TCR-2 RNA interaction inhibitors, dose response, biochemical, C. elegans, fluorescence polarization (AID 1960).

Experiment [13] deals with Streptococcus sp. 'group A'. Briefly: growth inhibition of control SK(-) GAS strain, dose response, counter-screen for streptokinase expression inhibitor project, luminescence, kanamycin, BacTiterGlo, confirmation (AID 1900). It is filed as functional, organism-based.
Experiment [14] can be described thus: P. falciparum Dd2 growth inhibitors, dose response, SYBR Green, cherry-picked samples (AID 1159567). It is filed as functional, cell-based.
Experiment [15] can be described thus: THP-1 cell cytotoxicity, dose response, cytotoxicity control for Vif-APOBEC3G degradation inhibitor project, THP-1 cells (AID 1117359). In kind it is functional. The settings on record: Human immunodeficiency virus 1, THP-1.
The next experiment has as its target T7, Protein Tat (Human immunodeficiency virus type 1 group M subtype B (isolate HXB2)(HIV-1), UniProt P04608).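 Also: tat binding to TAR RNA read out by fluorescence polarization.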
T7 sequence (P04608 whole entry): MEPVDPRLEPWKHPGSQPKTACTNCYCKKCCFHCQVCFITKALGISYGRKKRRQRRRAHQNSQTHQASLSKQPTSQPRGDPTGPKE
It is filed as functional.

The nature of experiment [16]: cytotoxicity in HPDE-C7 cells, cell-based, fluorescence, HTS (AID 430). In kind it is functional. The settings on record: Homo sapiens.
The nature of experiment [17]: cytotoxicity in KRAS-transformed pancreatic duct cells, primary screen, cell-based, fluorescence, HTS (AID 431).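 Also: cell line used: HPDE-C7K.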 The settings on record: Homo sapiens. It is filed as functional.

The source made the active and inactive calls. A value given as a limit tells only on which side of the number the result lay.

Nonstructural protein 1, sequence (Q194T2 whole entry): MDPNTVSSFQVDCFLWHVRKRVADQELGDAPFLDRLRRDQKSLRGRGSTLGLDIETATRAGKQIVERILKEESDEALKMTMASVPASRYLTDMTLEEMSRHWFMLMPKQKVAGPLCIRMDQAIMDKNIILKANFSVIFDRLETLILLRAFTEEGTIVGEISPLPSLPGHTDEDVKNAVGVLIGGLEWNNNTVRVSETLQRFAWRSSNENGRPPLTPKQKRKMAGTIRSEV
Induced myeloid leukemia cell differentiation protein Mcl-1, sequence (Q07820 whole entry): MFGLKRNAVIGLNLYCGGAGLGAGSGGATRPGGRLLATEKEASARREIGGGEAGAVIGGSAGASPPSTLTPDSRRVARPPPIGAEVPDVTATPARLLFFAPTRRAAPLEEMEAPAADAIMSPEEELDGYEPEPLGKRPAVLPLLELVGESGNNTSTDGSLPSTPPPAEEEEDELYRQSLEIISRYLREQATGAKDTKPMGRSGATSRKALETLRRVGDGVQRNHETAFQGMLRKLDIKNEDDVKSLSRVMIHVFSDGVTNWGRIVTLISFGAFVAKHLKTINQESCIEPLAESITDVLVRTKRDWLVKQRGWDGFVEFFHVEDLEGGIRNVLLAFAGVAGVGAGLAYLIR
Eukaryotic translation initiation factor 4E, sequence (P63073 whole entry): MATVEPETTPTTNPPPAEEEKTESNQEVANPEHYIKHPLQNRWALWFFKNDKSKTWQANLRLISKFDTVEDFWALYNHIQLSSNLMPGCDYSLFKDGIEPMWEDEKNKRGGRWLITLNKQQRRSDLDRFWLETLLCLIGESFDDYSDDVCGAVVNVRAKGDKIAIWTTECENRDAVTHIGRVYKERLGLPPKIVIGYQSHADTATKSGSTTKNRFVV

Broadly, the Ki is the equilibrium dissociation constant of an inhibitor or competing ligand from its target. `COc1ccccc1-n1c(CNC(=O)c2ccco2)nnc1SCC(=O)Nc1ccc(F)cc1`: the Ki on fMet-Leu-Phe receptor is 63.3 µM (inactive).

Take `CCCCn1c(NC(C)=O)c(C#N)c2nc3ccccc3nc21`: the Ki at fMet-Leu-Phe receptor is 45.7 µM (inactive).

A word on the IC50: it is the concentration at which inhibition is half-maximal. For the compound `O=C(COc1ccccc1Cl)c1ccc[nH]1`, the values for the IC50 in [1] and in experiment [2] were 50 µM (inactive) and > 100 µM (active), respectively.

On to `CC1CC1C(=O)OCC(=O)Nc1ccc2[nH]c(O)nc2c1` (configuration not stated), for which, in [3], the IC50 was 5.94 µM (active).

On to `COC(=O)CSc1ncnc2c1sc1nc(-c3ccco3)c3c(c12)CC(C)(C)OC3`, for which, in experiment [3], the IC50 was 4.15 µM (active).

Broadly, the AC50 is the concentration giving half of the maximal activity seen. In the case of `Cn1nnnc1Sc1ncnc2scc(-c3ccc(C#N)cc3)c12`, the AC50 in experiment [4] was 10.9 µM (active); in experiment [5] it was 5.18 µM (active); in experiment [6], 7.68 µM (active); in experiment [7], 4.98 µM (active); in experiment [8] it was 7.28 µM (active); in experiment [9], 3.6 µM (active). Besides, the AC50 in experiment [10] was 8.12 µM (active).

As to `Fc1ccc(-c2nnc3ccc(N4CCCC4)nn23)cc1`, the Ki at fMet-Leu-Phe receptor was > 66.7 µM (inactive).

In the case of `Cc1cc2oc(C(=O)NC3CCS(=O)(=O)C3)c(C)c2cc1C` (configuration not stated), on fMet-Leu-Phe receptor, the Ki is > 66.7 µM (inactive).

In the case of `CCN(CC)c1ccc(C(=S)N2CCN(c3ccccc3)CC2)cc1`, the IC50 on Nonstructural protein 1 was > 100 µM (active); at Protein skinhead-1, > 100 µM (inactive).

For the compound `Cc1ccccc1/C(O)=C(\C#N)N=Nc1c(C)n(C)n(-c2ccccc2)c1=O`, at Nonstructural protein 1, the IC50 is 10.9 µM (active).

Consider `COc1ccc(-c2cnc3c(c2)C(=O)N([C@H](C)CO)C[C@H](C)[C@@H](CN(C)C(=O)C2CCC2)O3)cc1`, for which the AC50 in [10] was 25.8 µM (active).

For orientation: EC50 means the concentration that produces a half-maximal response. On to `Cc1ncc(CO)c(/C=N/NC(=O)c2cc(Br)ccc2O)c1O`, for which the EC50 in the experiment with Streptococcus was 1.06 µM (active); in experiment [11], > 300 µM (not active); in [12], 5.72 µM (active); in experiment [13] it was 1.39 µM (active). Besides, on Nonstructural protein 1, the IC50 is 11.3 µM (active).

For the compound `COc1cc(/C=N/NC(=S)NCCN2CCOCC2)cc(OC)c1O`, the 50% inhibitory concentration (IC50) at Nonstructural protein 1 is 70.1 µM (active).

For `C[C@@H]1CN([C@H](C)CO)C(=O)c2cc(-c3ccc(C#N)cc3)cnc2O[C@H]1CN(C)C(=O)Nc1ccc(C(F)(F)F)cc1`, the AC50 in [14] was 21.2 µM (active).

As to `CC(C)(C)[S@+]([O-])N1Cc2cc(C(=O)N[C@@H]3CCN(Cc4ccccc4)C3)nc(-c3cccc(-c4ccncc4)c3)c2[C@@H]1CCO`, the concentration at half-maximal activity (AC50) in [14] is 4.68 µM (active).

The term CC50 denotes the concentration at which the toxic effect on the cells reaches its halfway point. In the case of `Nc1ccc(N2CCCCCC2)cc1`, the CC50 in experiment [15] is 13.3 µM (active). Also, the IC50 is 11.8 µM (inconclusive) at Protein Tat and 44.5 µM (active) in experiment [2]. Besides, the EC50 was 13.3 µM (active) in experiment [16] and 15.4 µM (active) in experiment [17].

Source of the values: ChEMBL document CHEMBL1201862, “PubChem BioAssay data set” (2004).
